Experimental data as given in the NIST ThermoML archive (doi:10.1021/je200862b).

Columns and labels:
[1] = xn = mol fraction of the nth substance listed; conditions: 101 kPa, Liquid; for viscosity: Capillary tube (Ostwald / Ubbelohde) method
[2] = 101 kPa, Liquid; for viscosity: Capillary tube (Ostwald / Ubbelohde) method

CCN(CC)c1ccccc1 [N,N-diethylaniline] + CCC(=O)O
viscosity [mPa·s], [1]
Conditions | x2 = 0 | x2 = 0.1047 | x2 = 0.2096 | x2 = 0.3142 | x2 = 0.4164 | x2 = 0.5177 | x2 = 0.6097 | x2 = 0.7077 | x2 = 0.8123 | x2 = 0.9156
303.15 K | 1.703 | 1.801 | 2.04 | 2.404 | 2.91 | 3.663 | 4.04 | 3.968 | 3.26 | 1.532
313.15 K | 1.402 | 1.45 | 1.59 | 1.765 | 2.118 | 2.527 | 2.88 | 2.737 | 2.086 | 1.247
323.15 K | 1.049 | 1.068 | 1.173 | 1.315 | 1.555 | 1.865 | 2.1 | 1.949 | 1.51 | 0.9723

mass density [kg/m3], [1], Vibrating tube method
Conditions | x2 = 0 | x2 = 0.1047 | x2 = 0.2096 | x2 = 0.3142 | x2 = 0.4164 | x2 = 0.5177 | x2 = 0.6097 | x2 = 0.7077 | x2 = 0.8123 | x2 = 0.9156
303.15 K | 925.98 | 933.41 | 942.07 | 952.1 | 963.82 | 977.88 | 989.1 | 996.15 | 995 | 990.93
313.15 K | 917.72 | 924.61 | 932.8 | 942.21 | 953.72 | 967.27 | 977.5 | 983.95 | 982.7 | 980.07
323.15 K | 912.8 | 919.51 | 926.38 | 934.92 | 944.35 | 955.31 | 965.34 | 971.29 | 974.71 | 974.19

CCN(CC)c1ccccc1 [N,N-diethylaniline]
[2]
Conditions | viscosity [mPa·s]
303.15 K | 1.703
313.15 K | 1.402
323.15 K | 1.049

[2], Vibrating tube method
Conditions | mass density [kg/m3]
303.15 K | 925.98
313.15 K | 917.72
323.15 K | 912.8

CCC(=O)O [propanoic acid]
[2]
Conditions | viscosity [mPa·s]
303.15 K | 0.9496
313.15 K | 0.8476
323.15 K | 0.7062

[2], Pycnometric method
Conditions | mass density [kg/m3]
303.15 K | 982.09
313.15 K | 973.4
323.15 K | 961.39

CN(C)c1ccccc1 [N,N-dimethylaniline]
[2]
Conditions | viscosity [mPa·s]
303.15 K | 1.174
313.15 K | 0.9823
323.15 K | 0.8259

[2], Pycnometric method
Conditions | mass density [kg/m3]
303.15 K | 948.02
313.15 K | 938.5
323.15 K | 930.72

CCC(=O)O [propanoic acid] + CN(C)c1ccccc1
[1], x1 = 1
Conditions | viscosity [mPa·s]
303.15 K | 0.9496
313.15 K | 0.8476
323.15 K | 0.7062

[1], Pycnometric method, x1 = 1
Conditions | mass density [kg/m3]
303.15 K | 982.09
313.15 K | 973.4
323.15 K | 961.39

CCC(=O)O [propanoic acid] + CCN(CC)c1ccccc1
[1], x1 = 1
Conditions | viscosity [mPa·s]
303.15 K | 0.9496
313.15 K | 0.8476
323.15 K | 0.7062

[1], Vibrating tube method, x1 = 1
Conditions | mass density [kg/m3]
303.15 K | 982.09
313.15 K | 973.4
323.15 K | 961.39

CN(C)c1ccccc1 [N,N-dimethylaniline] + CCC(=O)O
viscosity [mPa·s], [1]
Conditions | x2 = 0 | x2 = 0.102 | x2 = 0.2054 | x2 = 0.3071 | x2 = 0.4092 | x2 = 0.5107 | x2 = 0.6178 | x2 = 0.7083 | x2 = 0.8023 | x2 = 0.8987
303.15 K | 1.174 | 1.27 | 1.329 | 1.386 | 1.446 | 1.494 | 1.545 | 1.534 | 1.457 | 1.225
313.15 K | 0.9823 | 1.019 | 1.058 | 1.093 | 1.124 | 1.149 | 1.151 | 1.119 | 1.06 | 0.9646
323.15 K | 0.8259 | 0.8432 | 0.8693 | 0.8949 | 0.9196 | 0.9397 | 0.9442 | 0.9121 | 0.864 | 0.7783

mass density [kg/m3], [1], Pycnometric method
Conditions | x2 = 0 | x2 = 0.102 | x2 = 0.2054 | x2 = 0.3071 | x2 = 0.4092 | x2 = 0.5107 | x2 = 0.6178 | x2 = 0.7083 | x2 = 0.8023 | x2 = 0.8987
303.15 K | 948.02 | 954.36 | 959.8 | 964.49 | 969.31 | 974.03 | 978.56 | 982.24 | 985.32 | 986.44
313.15 K | 938.5 | 943.74 | 949.09 | 954.21 | 959.17 | 963.99 | 968.62 | 972.2 | 975.35 | 975.69
323.15 K | 930.72 | 934.82 | 939.72 | 944.52 | – | 953.51 | 958 | 961.05 | 963.47 | 963.54
